Experimental data published in US20240002846A1, “COMPOSITIONS AND METHODS FOR THE DIAGNOSIS AND TREATMENT OF ITCH” (Duke University, priority 2020, published 2024).
Values joined by “and” are separate entries in the source; they are usually repeats but may differ in a detail not shown here. Equal entries are not always repeated. Where two headings read alike, the source gives them in different places.

Assays:
[1] = target: rTRPV4-R746D (Rattus norvegicus, UniProt Q9ERZ8, R746D); test: In vitro interaction (overlay) assay LPC-TRPV4-R746D; type: binding; set-up: made in house; host or cells: HEK293 cells, surface protein fraction; conditions: 200 pmol per spot
rTRPV4-R746D, sequence (Q9ERZ8 whole entry R746D): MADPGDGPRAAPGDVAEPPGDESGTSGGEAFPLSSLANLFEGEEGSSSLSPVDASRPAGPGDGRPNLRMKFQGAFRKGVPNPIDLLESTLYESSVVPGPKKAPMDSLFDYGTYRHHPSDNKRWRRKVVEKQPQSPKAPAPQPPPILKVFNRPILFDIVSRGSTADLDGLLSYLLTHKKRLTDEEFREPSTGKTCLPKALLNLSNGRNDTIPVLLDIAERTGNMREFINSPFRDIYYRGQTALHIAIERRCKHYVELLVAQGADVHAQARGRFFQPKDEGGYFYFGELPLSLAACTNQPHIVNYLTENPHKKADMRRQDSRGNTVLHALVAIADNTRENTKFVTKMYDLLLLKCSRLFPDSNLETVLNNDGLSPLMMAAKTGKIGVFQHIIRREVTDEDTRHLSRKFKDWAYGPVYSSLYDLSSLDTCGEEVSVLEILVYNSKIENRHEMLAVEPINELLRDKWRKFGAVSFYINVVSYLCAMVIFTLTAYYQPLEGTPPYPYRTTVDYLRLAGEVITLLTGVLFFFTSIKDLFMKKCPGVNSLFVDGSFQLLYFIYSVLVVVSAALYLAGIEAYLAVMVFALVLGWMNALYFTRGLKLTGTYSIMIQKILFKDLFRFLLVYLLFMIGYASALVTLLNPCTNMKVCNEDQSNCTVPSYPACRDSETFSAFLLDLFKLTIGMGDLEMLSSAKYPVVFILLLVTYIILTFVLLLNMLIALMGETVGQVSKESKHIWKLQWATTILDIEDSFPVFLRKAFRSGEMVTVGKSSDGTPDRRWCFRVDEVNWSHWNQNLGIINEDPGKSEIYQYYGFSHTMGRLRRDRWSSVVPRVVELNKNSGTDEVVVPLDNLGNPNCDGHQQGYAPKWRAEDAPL
Protocol: In vitro interaction assays of LPC-TRPV4. Surface proteins were obtained from HEK293 cells transiently expressing rTRPV4-EGFP channels using the Pierce Cell Surface Isolation kit (Pierce Biotechnology, Rockford, IL) following the manufacturer's instructions. Overlay assays were performed as previously described (Morales-Lazaro et al. Nat. Commun. 2016, 7, 13092). In brief, LPC 18:1 was spotted (200 pmol per spot) onto a nitrocellulose membrane (GE Healthcare, Pittsburgh, PA) and then blocked with 1% fatty acid-free BSA (Calbiochem) and 6% fat-free dried milk in PBS. Membranes were then incubated with the surface protein solutions and exposed to anti-GFP antibody (Sigma, St. Louis, MO) diluted 1:1000 in 3% fat-free dried milk in PBST (with 0.1% of Tween). Membranes were incubated with horseradish peroxidase-conjugated secondary anti-rabbit antibody (Cell Signaling Technology) diluted 1:7500 in 6% fat-free dried milk in PBST. The binding of rTRPV4-EGFP and TRPV4-R746D-EGFP to the lipid-containing spots was visualized by chemiluminescence by exposing the blot for 15 min (Amersham Bioscience, Piscataway, NJ). Semi-quantitative densitometric analysis was done using ImageJ (NIH) and expressed as relative protein levels of TRPV4 bound to each spot.

[2] = tested on: rat TRPV4 mutations (R746C, R746G, R746D, K754G, R757G, R774G, and W776G); test: Ca2+ imaging in HEK cells transfected with rat TRPV4 mutations; type: cell-based
Protocol: Cell culture and transfection. HEK293 cells (ATCC® CRL-1573) were cultured on poly-D-lysine coated coverslips in 24-well plate containing DMEM media with high-Glucose (Gibco, Gaithersburg, MD) supplemented with 10% fetal bovine serum (FBS, HyClone Laboratories, Logan, UT) and 100 U/mL of penicillin/streptomycin (Gibco, Gaithersburg, MD). Cell cultures were maintained with 5% of CO2 in a humidified incubator at 37° C. HEK cells were transfected with rat or human wild type or mutant TRPV4 channels with EGFP or YFP coupled to their C-termini (1.5 μg of plasmid for excised patch clamp and Ca^2+ imaging and 200 ng for single-channel experiments). The jetPEI™ Polyplus transfection reagent (Polyplus Transfection, New York, NY) for electrophysiology or Lipofectamine™ 2000 Reagent (Invitrogen, Waltham, MA) for Ca^2+ imaging were used for transfections per manufacturer's instructions as previously described (Chen et al. Pain 2014, 155, 2662-2672; Morales-Lazaro et al. Nat. Commun. 2016, 7, 13092). To investigate whether miR-146a can directly activate TRPV1 channels or indirectly via TLRs, HEK293 cells were transfected with rTRPV1 or co-transfected rTRPV1 with rTLR7, rTLR2, or rTLR6 (Addgene, Watertown, MA) for Ca^2+ imaging assay. Control cells were transfected with GFP or YFP.
Site-directed mutagenesis of TRPV4 channels. TRPV4 sequences of multiple species were aligned using Clustal Omega program. Site-directed mutagenesis to generate point mutations in rat and human TRPV4 channels were carried out using Phusion DNA polymerase enzyme (Salazar et al. Nat. Struct. Mol. Biol. 2009, 16, 704-710; Rosenbaum et al. Neuron 2002, 33, 703-713; Hsieh et al. Methods Mol. Biol. 2013, 978, 173-186), with final sequencing to check for presence of the induced mutation. We introduced the following mutations into the rTRPV4 or hTRPV4 channel: R746C, R746G, R746D, K754G, R757G, R774G, and W776G.
In vitro and ex vivo Ca^2+ imaging. […] Ratios of emissions were acquired at 0.5 Hz. ΔR/R0 was determined as the fraction of the increase of a given ratio over baseline ratio divided by baseline ratio. […]

[3] = target: rTRPV4 (Rattus norvegicus, UniProt Q9ERZ8); test: Inside-out patch-clamp, HEK cells transfected with rTRPV4; type: biochemical; set-up: expressed in transfected cells; host or cells: HEK293; conditions: 5 μM LPC 18:1, WT-rTRPV4, inside-out patches
rTRPV4, sequence (Q9ERZ8 whole entry): as the sequence (Q9ERZ8 whole entry R746D) above, with D746R counted along it
Protocol: (§1) Cell culture and transfection. HEK293 cells (ATCC® CRL-1573) were cultured on poly-D-lysine coated coverslips in 24-well plate containing DMEM media with high-Glucose (Gibco, Gaithersburg, MD) supplemented with 10% fetal bovine serum (FBS, HyClone Laboratories, Logan, UT) and 100 U/mL of penicillin/streptomycin (Gibco, Gaithersburg, MD). Cell cultures were maintained with 5% of CO2 in a humidified incubator at 37° C. HEK cells were transfected with rat or human wild type or mutant TRPV4 channels with EGFP or YFP coupled to their C-termini (1.5 μg of plasmid for excised patch clamp and Ca^2+ imaging and 200 ng for single-channel experiments). […]
(§2) Electrophysiology. Currents were recorded using the inside-out configuration of the patch-clamp technique (Hamill et al. Pflugers Arch. 1981, 391, 85-100). […] Mean current values in response to GSK1016790A or LPC 18:1 were measured after channel activation had reached the steady-state (˜3 min). […] Currents were low-pass filtered at 2 kHz and sampled at 10 kHz with an EPC 10 amplifier (HEKA Elektronik) and were plotted and analyzed with Igor Pro (Wavemetrics Inc.).

[4] = target: T1, hTRPV4-121AAWAA125 (Homo sapiens, UniProt Q9HBA0, K121A/K125A/R122A/R124A); test: Inside-out patch-clamp, hTRPV4-121AAWAA125; type: biochemical; conditions: 5 μM LPC 18:1
T1 construct: expressed in transfected cells; host or cells: HEK293
T1 sequence (Q9HBA0 whole entry K121A/R122A/R124A/K125A): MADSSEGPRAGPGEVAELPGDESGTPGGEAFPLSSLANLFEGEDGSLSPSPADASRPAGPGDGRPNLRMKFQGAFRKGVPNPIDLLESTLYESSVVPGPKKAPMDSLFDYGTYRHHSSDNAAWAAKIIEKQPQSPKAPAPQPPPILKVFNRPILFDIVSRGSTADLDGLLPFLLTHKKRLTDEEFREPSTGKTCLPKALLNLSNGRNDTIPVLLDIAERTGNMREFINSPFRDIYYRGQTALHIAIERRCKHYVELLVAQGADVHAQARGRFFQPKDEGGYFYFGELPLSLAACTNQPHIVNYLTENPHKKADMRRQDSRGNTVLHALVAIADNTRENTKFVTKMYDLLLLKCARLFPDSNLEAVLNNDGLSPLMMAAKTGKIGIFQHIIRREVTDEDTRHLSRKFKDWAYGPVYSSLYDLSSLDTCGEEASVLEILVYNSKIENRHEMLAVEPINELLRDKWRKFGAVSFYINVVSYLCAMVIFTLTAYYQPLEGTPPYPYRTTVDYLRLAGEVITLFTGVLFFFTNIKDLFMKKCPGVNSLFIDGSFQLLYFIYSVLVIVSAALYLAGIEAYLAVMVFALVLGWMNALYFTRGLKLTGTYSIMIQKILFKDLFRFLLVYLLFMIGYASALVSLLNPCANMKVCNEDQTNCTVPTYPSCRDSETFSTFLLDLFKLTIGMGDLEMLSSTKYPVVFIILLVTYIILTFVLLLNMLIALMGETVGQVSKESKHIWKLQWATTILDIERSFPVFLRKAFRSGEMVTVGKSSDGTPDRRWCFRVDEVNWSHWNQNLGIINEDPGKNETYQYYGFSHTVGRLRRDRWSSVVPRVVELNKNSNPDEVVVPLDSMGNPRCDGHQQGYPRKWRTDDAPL
Protocol: as §1, §2

LPC 18:1
binding of LPC 18:1 to rTRPV4-R746D relative to rTRPV4 [1]: significantly reduced binding | binding of LPC 18:1 to rTRPV4-R746D relative to rTRPV4 ([1]; listed as LPC (18:1)): significant reduction of this interaction | Ca2+ signal induced by 10 μM LPC 18:1 in TRPV4 mutants vs rTRPV4 [2]: drastically reduced | Ca2+ signal induced by 10 μM LPC 18:1 in TRPV4 mutants vs rTRPV4 ([2]; listed as LPC (18:1)): significantly reduced potency | average activation of currents, normalized to 1 μM GSK101 [3]: 54±4% | average activation of currents, normalized to 1 μM GSK101 ([3]; listed as LPC (18:1)): 54% and ~50% | average activation of currents, normalized to 1 μM GSK101 [4]: 43±4%
